Read-outs that look alike come from different tables or passages of the source.

Test [1] has as its target human recombinant 5-HT2A receptor (Homo sapiens (Human), UniProt P28223). The test can be described thus: 5-HT2A receptor binding inhibition test ([3H]-Ketanserin). The conditions noted are these: Jump-In HEK cell membrane. The procedure:
Test Example 1: 5-HT2A Receptor Binding Inhibition Test
(§1) (Each Experimental Condition)
Cell membrane: Jump-In HEK cell membrane (expressing human recombinant 5-HT2A receptor)
(§2) Assay buffer: Tris-HCl 50 mmol/L (pH 7.4) containing NaCl 120 mmol/L, MgCl2.6H2O 1 mmol/L, KCl 5 mmol/L, 0.1% BSA, and CaCl2 2 mmol/L
Radioactive ligand: [^3H]-Ketanserin around Kd value calculated by the following method
(§3) Non-specific ligand: Serotonin HCl
(§4) The Kd value was calculated when the lot of cell membrane was changed. In advance, 0.5 μL of a 1 mmol/L compound for non-specific binding calculation dissolved in DMSO or DMSO was dispensed into a microplate, and the cell membrane was diluted with an Assay buffer. The radioactive ligand solution was serially diluted and the count was confirmed with a liquid scintillator. Assay buffer containing diluted cell membrane was dispensed into a microplate at 50 μL/well. Then, the radioactive ligand solution was dispensed into a microplate at 50 μL/well, and the plate was sealed. It was allowed to stand at room temperature (25° C.) for 1.5 hours. During this period, 50 mmol/L Tris-HCl (pH 7.4) was dispensed into a GF/B UniFilter plate at 50 μL/well and allowed to stand at 4° C. for 1 hour or longer. After that, filtration was performed with Cell harvester (PerkinElmer). The radioactive ligand solution was dispensed into an empty well of the GF/B UniFilter plate at 10 μL/well. After the GF/B UniFilter plate was dried at room temperature, MicroScinti 20 was dispensed into the GF/B UniFilter plate at 50 μL/well, and the plate was sealed. The GF/B UniFilter plate was allowed to stand overnight at room temperature. The radioactivity of [^3H]-Ketanserin bound to the 5-HT2A receptor was measured using Microbeta2 (PerkinElmer) at a measurement time of 1 min/well. The Saturation curve was drawn from the measured value, and the Kd value was calculated from the slope of the Scatchard Plot.
(§5) (Binding Test of the Compound According to the Present Invention)
(§6) In advance, 0.5 μL of the compound solution dissolved in DMSO was dispensed into a microplate, and the cell membrane and the hot ligand were diluted with Assay buffer, respectively. Then, the Assay buffer containing the diluted cell membrane was dispensed into a microplate at 50 μL/well. Then, the radioactive ligand solution was dispensed into a microplate at 50 μL/well, and the plate was sealed. Then, it was allowed to stand at room temperature (25° C.) for 1.5 hours. During this period, 50 mmol/L Tris-HCl (pH 7.4) was dispensed into a GF/B UniFilter plate at 50 μL/well and allowed to stand at 4° C. for 1 hour or longer. After that, filtration was performed with Cell harvester (PerkinElmer). After the GF/B UniFilter plate was dried at room temperature, MicroScinti 20 was dispensed into the GF/B UniFilter plate at 50 μL/well, and the plate was sealed. The GF/B UniFilter plate was allowed to stand overnight at room temperature. The radioactivity of [^3H]-Ketanserin bound to the 5-HT2A receptor was measured using Microbeta2 (PerkinElmer) at a measurement time of 1 min/well. The non-specific binding was calculated from the radioactivity of [^3H]-Ketanserin in the presence of […] Serotonin HCl with the unlabeled ligand, and the total binding was calculated from the radioactivity of [^3H]-Ketanserin in the absence of the compound according to the present invention (Vehicle). Finally, the Ki value was calculated from the dose-response curve.
(§7) (The binding activity of the compound according to the present invention was calculated from the following binding inhibition rate (%).)
(§8) Inhibition rate (%)=[1−(c−a)/(b−a)]×100 • a; mean cpm of non-specific binding • b; mean cpm of total binding • c; cpm in the presence of the test compound

Test [2] deals with human recombinant 5-HT2C receptor (Homo sapiens (Human), UniProt P28335). The test can be described thus: 5-HT2C receptor binding inhibition test ([3H]-Mesulergine). The following applies: Jump-In HEK cell membrane, [3H]-Mesulergine. The procedure:
as §1
Cell membrane: Jump-In HEK cell membrane (expressing human recombinant 5-HT2C receptor)
as §2
Radioactive ligand: [^3H]-Mesulergine around Kd value calculated by the following method
as §3
as §4, with “[…]” for “4°”, “The radioactivity of [^3H]-Ketanserin bound to the 5-HT2A receptor was measured using Microbeta2 (PerkinElmer) at a measurement time of 1 min/well.” left out
as §5
as §6, with “37° C.” for “room temperature (25° C.)”, “2” for “1.5”, “The radioactivity of [^3H]-Ketanserin bound to the 5-HT2A receptor was measured using Microbeta2 (PerkinElmer) at a measurement time of 1 min/well.” left out, “[^3H]-Mesulergine” for “[^3H]-Ketanserin”
as §7, §8

The mark [3] stands for this setting: read-out: human serotonin 5-HT2A receptor binding activity, Ki value.
Setting [4] is: read-out: human serotonin 5-HT2C receptor binding inhibitory activity, Ki value.

Sequence of human recombinant 5-HT2A receptor (P28223 whole entry): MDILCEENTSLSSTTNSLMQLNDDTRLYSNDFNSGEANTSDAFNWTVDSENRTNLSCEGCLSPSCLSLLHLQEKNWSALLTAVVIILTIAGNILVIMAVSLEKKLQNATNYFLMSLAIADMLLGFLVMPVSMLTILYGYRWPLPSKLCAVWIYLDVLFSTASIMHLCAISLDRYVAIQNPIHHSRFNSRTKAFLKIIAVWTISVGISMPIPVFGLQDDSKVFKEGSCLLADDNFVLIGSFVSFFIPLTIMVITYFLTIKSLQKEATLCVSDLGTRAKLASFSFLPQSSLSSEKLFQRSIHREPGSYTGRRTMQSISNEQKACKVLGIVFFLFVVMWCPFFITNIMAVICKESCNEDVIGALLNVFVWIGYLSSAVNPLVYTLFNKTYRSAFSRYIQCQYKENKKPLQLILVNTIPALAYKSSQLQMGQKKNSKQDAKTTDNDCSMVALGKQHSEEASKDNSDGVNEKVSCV
Sequence of human recombinant 5-HT2C receptor (P28335 33-458): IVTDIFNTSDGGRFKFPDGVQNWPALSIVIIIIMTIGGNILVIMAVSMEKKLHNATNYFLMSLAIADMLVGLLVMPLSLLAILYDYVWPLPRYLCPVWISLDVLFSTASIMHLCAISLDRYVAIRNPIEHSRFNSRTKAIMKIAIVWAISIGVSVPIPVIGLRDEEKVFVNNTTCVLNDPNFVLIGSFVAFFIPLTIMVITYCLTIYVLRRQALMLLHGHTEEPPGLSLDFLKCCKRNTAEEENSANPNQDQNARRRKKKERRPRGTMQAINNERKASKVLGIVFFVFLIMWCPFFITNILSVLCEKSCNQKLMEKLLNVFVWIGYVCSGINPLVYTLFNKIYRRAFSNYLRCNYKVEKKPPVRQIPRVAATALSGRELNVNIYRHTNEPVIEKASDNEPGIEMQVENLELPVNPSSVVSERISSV

With `CC(C)COc1ccc(CN(Cc2ccncn2)C(=O)NC2CCN(C)CC2)cc1` [Compound I-019], the Ki (as a rule, a measure of affinity in units of concentration, obtained from inhibition or displacement) lay in the range of 10 to 100 nM in test [1] (read-out: h-5-HT2A Ki) and 100 to 5000 nM in test [2] (read-out: h-5-HT2C Ki).
For `CC(C)COc1ccc(CN(Cc2cnccn2)C(=O)NC2CCN(C)CC2)cc1` [Compound I-020], in that order: 10 to 100 nM and 10 to 100 nM.
The like results for `CCCOc1ccc(CN(Cc2ccc(F)cn2)C(=O)NC2CCN(C)CC2)cc1` [Compound I-021] were, in that order, under 10 nM and under 10 nM.
The like results for `Cc1cccnc1CN(Cc1ccc(OCC(C)C)cc1)C(=O)NC1CCN(C)CC1` [Compound I-023] were, in that order, under 10 nM and 10 to 100 nM.
`CC(C)COc1ccc(CN(Cc2ccco2)C(=O)NC2CCN(C)CC2)cc1` [Compound I-024]: the Ki in test [1] (read-out: h-5-HT2A Ki) and in test [2] (read-out: h-5-HT2C Ki) was under 10 nM in each case.
On to `CC(C)COc1ccc(CN(Cc2nccs2)C(=O)NC2CCN(C)CC2)cc1` [Compound I-025], for which the Ki in test [1] (read-out: h-5-HT2A Ki) and in test [2] (read-out: h-5-HT2C Ki) was 10 to 100 nM each time.
Turning to `CN1CCC(NC(=O)N(Cc2ccc3c(c2)OCO3)Cc2ccn(C)n2)CC1` [Compound I-026], the Ki in test [1] (read-out: h-5-HT2A Ki) was 10 to 100 nM; in test [2] (read-out: h-5-HT2C Ki), 100 to 5000 nM.
For `CC(C)COc1ccc(CN(Cc2ccn(C)n2)C(=O)N[C@@H]2CCNCC2(F)F)cc1` [Compound I-027], the Ki in test [1] (read-out: h-5-HT2A Ki) and in test [2] (read-out: h-5-HT2C Ki) was 100 to 5000 nM each time.
Regarding `CN1CCC(NC(=O)N(Cc2ccc(C3CC3)cc2)Cc2ccn(C)n2)CC1` [Compound I-029], the Ki in test [1] (setting [3]) was found to be 4.33 nM; in test [2] (setting [4]), 20.5 nM.
With `Cc1ccc(CN(Cc2ccc(OCC(C)C)cc2)C(=O)NC2CCN(C)CC2)nc1` [Compound I-031], the Ki in test [1] (setting [3]) was found to be 0.709 nM; in test [2] (setting [4]), 1.89 nM.
Take `CC(C)COc1ccc(CN(Cc2ccc(C#N)cn2)C(=O)NC2CCN(C)CC2)cc1` [Compound I-032]: the Ki is 10 to 100 nM in test [1] (read-out: h-5-HT2A Ki) and 100 to 5000 nM in test [2] (read-out: h-5-HT2C Ki).
With `CC(C)COc1ccc(CN(Cc2cc3ccccc3o2)C(=O)NC2CCN(C)CC2)cc1` [Compound I-033], the figures for the Ki in test [1] (setting [3]) and in test [2] (setting [4]) were 4.01 nM and 28.9 nM, respectively.
For `CC(C)COc1ccc(CN(Cc2cccs2)C(=O)NC2CCN(C)CC2)cc1` [Compound I-034], the Ki is under 10 nM in test [1] (read-out: h-5-HT2A Ki) and 10 to 100 nM in test [2] (read-out: h-5-HT2C Ki).
`CC(C)COc1ccc(CN(Cc2cocn2)C(=O)NC2CCN(C)CC2)cc1` [Compound I-035]: the Ki in test [1] (read-out: h-5-HT2A Ki) is under 10 nM; in test [2] (read-out: h-5-HT2C Ki), 10 to 100 nM.
`CC(C)COc1ccc(CN(Cc2ccn(C)n2)C(=O)CN2CCN(C)CC2)cc1` [Compound I-036]: the results for the Ki in test [1] (read-out: h-5-HT2A Ki) and in test [2] (read-out: h-5-HT2C Ki) were 10 to 100 nM and 100 to 5000 nM, respectively.
With `CC(C)COc1ccc(CN(Cc2ccn(C)n2)C(=O)N[C@H]2CCN(C)CC23CC3)cc1` [Compound I-037], the Ki was 4.7 nM in test [1] (setting [3]) and 2.11 nM in test [2] (setting [4]).
Take `Cc1ccc(CN(Cc2ccn(C)n2)C(=O)NC2CCN(C)CC2)cc1` [Compound I-038]: the Ki in test [1] (read-out: h-5-HT2A Ki) and in test [2] (read-out: h-5-HT2C Ki) was 10 to 100 nM each time.
As for `Cc1cc(CN(Cc2ccc(OCC(C)C)cc2)C(=O)NC2CCN(C)CC2)no1` [Compound I-039], the Ki in test [1] (read-out: h-5-HT2A Ki) and in test [2] (read-out: h-5-HT2C Ki) was 10 to 100 nM each time.
Regarding `CC(C)COc1ccc(CN(Cc2ccn(C)c2)C(=O)NC2CCN(C)CC2)cc1` [Compound I-040], the results for the inhibition constant Ki in test [1] (read-out: h-5-HT2A Ki) and in test [2] (read-out: h-5-HT2C Ki) were under 10 nM and 10 to 100 nM, respectively.
The like results for `CC(C)COc1ccc(CN(Cc2nn(C)cc2Cl)C(=O)NC2CCN(C)CC2)cc1` [Compound I-041] were, in that order, 10 to 100 nM and 10 to 100 nM.
For `COc1ccc(CN(Cc2ccc(F)cn2)C(=O)NC2CCN(C)CC2)cc1` [Compound I-042], in that order: under 10 nM and 10 to 100 nM.
As to `CN1CCC(NC(=O)N(Cc2ccc(OC(F)(F)F)cc2)Cc2ccn(C)n2)CC1` [Compound I-046], the Ki in test [1] (setting [3]) was 3.09 nM; in test [2] (setting [4]), 14.5 nM.
As for `CC(C)Oc1ccc(CN(Cc2ccn(C)n2)C(=O)NC2CCN(C)CC2)cc1` [Compound I-047], the Ki in test [1] (read-out: h-5-HT2A Ki) and in test [2] (read-out: h-5-HT2C Ki) was 10 to 100 nM in each case.
Consider `CC(C)COc1ccc(CN(Cc2ccn(C)n2)C(=O)N[C@H]2CCNC[C@H]2F)cc1` [Compound I-048], for which the Ki in test [1] (read-out: h-5-HT2A Ki) and in test [2] (read-out: h-5-HT2C Ki) was under 10 nM each time.
For `CC(C)COc1ccc(CN(Cc2ccn(C)n2)C(=O)N[C@H]2CCN(C)C[C@H]2F)cc1` [Compound I-049], the inhibition constant (Ki) in test [1] (read-out: h-5-HT2A Ki) and in test [2] (read-out: h-5-HT2C Ki) was under 10 nM in each case.
Take `CC(C)COc1ccc(CN(Cc2ccc(F)cn2)C(=O)N[C@H]2CCN(C)C[C@H]2F)cc1` [Compound I-050]: the Ki in test [1] (read-out: h-5-HT2A Ki) and in test [2] (read-out: h-5-HT2C Ki) was under 10 nM in each case.
For the molecule `COc1ccc(CN(Cc2ccn(C)n2)C(=O)NC2CCN(C)CC2)nc1` [Compound I-051], the Ki in test [1] (read-out: h-5-HT2A Ki) and in test [2] (read-out: h-5-HT2C Ki) was 100 to 5000 nM in each case.
As for `CC(C)COc1ccc(CN(Cc2ccn(C)n2)C(=O)N[C@H]2[C@@H]3CN(C)C[C@@H]32)cc1` [Compound I-058], the Ki in test [1] (read-out: h-5-HT2A Ki) and in test [2] (read-out: h-5-HT2C Ki) was 10 to 100 nM throughout.
As for `CC(C)COc1ccc(CN(Cc2ccn(C)n2)C(=O)NCC2CN(C)C2)cc1` [Compound I-059], the Ki was in the range of 10 to 100 nM in test [1] (read-out: h-5-HT2A Ki) and 100 to 5000 nM in test [2] (read-out: h-5-HT2C Ki).
The like results for `CC(C)COc1ccc(CN(Cc2cnn(C)c2)C(=O)NC2CCN(C)CC2)cc1` [Compound I-060] were, in that order, 10 to 100 nM and 10 to 100 nM.
The like results for `CC(C)COc1ccc(CN(Cc2ccn(C)n2)C(=O)NC2CC3CC2CN3C)cc1` (stereo not shown) [Compound I-061] were, in that order, under 10 nM and 10 to 100 nM.
For `COCCN1CCC(NC(=O)N(Cc2ccc(OCC(C)C)cc2)Cc2ccn(C)n2)CC1` [Compound I-063], in that order: 10 to 100 nM and 10 to 100 nM.

The values above are taken from US20240083872A1, “CYCLIC AMINE DERIVATIVES HAVING SEROTONIN RECEPTOR BINDING ACTIVITY” (Shionogi & Co., Ltd., priority 2020, published 2024).
